According to US20120010206A1, “IMIDAZOLOPYRIDINE COMPOUNDS USEFUL FOR THE TREATMENT OF DEGENERATIVE AND INFLAMMATORY DISEASES” (priority 2006, published 2012):

Tests used:
[1] = test system: MMP1 expression from activated SFs (RASF); experiment: MMP assay: MMP1 expression (ELISA) by TNF-α-triggered RASFs; format: cell-based; conditions: RASF triggered with TNFα, MMP1 ELISA after 48 hrs, semi-quantitative score
Description: A 384-well format ELISA for measurement of MMP1 is developed. Various primary antibodies are tested, as well as various ELISA protocols. The following protocol is developed and validated to measure MMP1 levels in SF supernatant in 384 well plates: white Lumitrac 600 384 well plates (Greiner) are coated with 2 μg/mL anti-MMP1 antibody MAB1346 (Chemicon). The antibody is diluted in buffer 40 (1.21 g Tris base (Sigma), 0.58 g NaCl (Calbiochem) and 5 mL 10% NaN3 (Sigma) in 1 L milliQ water and adjusted to pH 8.5). After overnight incubation at 4° C., plates are washed with PBS (80 g NaCl, 2 g KCl (Sigma), 11.5 g Na2HPO4.7H2O and 2 g KH2PO4 in 10 L milliQ; pH 7.4) and blocked with 100 μL/well Casein buffer (2% Casein (VWR International) in PBS). Next day, casein buffer is removed from ELISA plates and replaced by 50 μL/well EC buffer (4 g casein, 2.13 g Na2HPO4 (Sigma), 2 g bovine albumin (Sigma), 0.69 g NaH2PO4.H2O (Sigma), 0.5 g CHAPS (Roche), 23.3 g NaCl, 4 mL 0.5 M EDTA pH 8 (Invitrogen), 5 mL 10% NaN3 in 1 L milliQ and adjusted to pH 7.0). 0.25 mM DTT (Sigma) is added to the thawed sample plates. After removal of the EC buffer, 20 μL of sample is transferred to the ELISA plates. After overnight incubation at 4° C. plates are washed twice with PBS and once with PBST (PBS with 0.05% Tween-20 (Sigma)) and incubated with 35 μL/well biotinylated anti-MMP1 antibody solution (R&D). This secondary antibody is diluted in buffer C (0.82 g NaH2PO4.H2O, 4.82 g Na2HPO4, 46.6 g NaCl, 20 g bovine albumin and 4 ml, 0.5M EDTA pH 8 in 2 L milliQ and adjusted to pH 7.0) at a concentration of 5 μg/mL. After 2 h of incubation at RT, plates are washed as described above and incubated with 50 μL/well streptavidin-HRP conjugate (Biosource). Streptavidin-HRP conjugate is diluted in buffer C at a concentration of 0.25 μg/mL. After 45 min, plates are washed as described above and incubated for 5 min with 50 μL/well BM Chem ELISA Substrate (Roche). Readout is performed on the Luminoscan Ascent Luminometer (Labsystems) with an integration time of 200 msec or with an Envision reader (Perkin Elmer).
SFs were acquired at passage 1 from a commercial supplier (Cell applications, Inc.). SFs are cultured in DMEM supplemented with 10% heat-inactivated FBS, 1× penicillin/streptomycin (Invitrogen) at 37° C., 10% CO2 until passage 6. Aliquots of the cells are frozen and cryopreserved in liquid nitrogen. Starting from a cryopreserved aliquot, cells are further expanded by sub-culturing cells at 1/3 ratio every week. Cells between passage 10 and 12 are routinely used in compound testing according to the following protocol.
Starting from the compound master stocks (all at 10 mM concentration in 100% DMSO) a 3-fold serial dilution is made in 96-well plates in 100% DMSO. Then, plates are further diluted 45-fold in M199 medium supplemented with 1% heat-inactivated FBS to obtain a intermediate work stock.
At day 1, RASFs are seeded in 96 well plates (flat bottom, tissue culture treated, Greiner) at a density of 3000 cells/well in complete synovial growth medium (Cell Applications). Day 5, the medium is completely removed from the cells, and replaced by 81 μL of M199 medium supplemented with 1% heat-inactivated FBS followed by addition of 10 μL compound out of the intermediate work stock. After an incubation period of 90 minutes, which allows the compounds to equilibrate and enter the cells, cells are stimulated with either TNF-α or ‘complex trigger’. TNF-α trigger is added in a volume of […] to obtain final concentration of 10 ng/mL. For that, TNF-α stock (PeproTech) at 10 μg/mL was diluted to 100 ng/mL TNF-α in M199 medium supplemented with 1% FBS. ‘Complex trigger’ mix is added in a volume of 20 μL to obtain a final concentration of 12.5%. For that, ‘complex trigger’ mix, is diluted to 80% with M199 medium supplemented with 1% FBS. […]

TAK1-TAB1 fusion protein = target: T1, TAK1-TAB1 fusion protein (Homo sapiens, UniProt O43318); experiment: In vitro TAK1 kinase assay (33P-ATP, casein substrate); format: biochemical; conditions: semi-quantitative score, at least two independent experiments
T1 construct: purchased Upstate 14-600
T1 sequence (O43318 with tags, fused parts or gaps limits assumed): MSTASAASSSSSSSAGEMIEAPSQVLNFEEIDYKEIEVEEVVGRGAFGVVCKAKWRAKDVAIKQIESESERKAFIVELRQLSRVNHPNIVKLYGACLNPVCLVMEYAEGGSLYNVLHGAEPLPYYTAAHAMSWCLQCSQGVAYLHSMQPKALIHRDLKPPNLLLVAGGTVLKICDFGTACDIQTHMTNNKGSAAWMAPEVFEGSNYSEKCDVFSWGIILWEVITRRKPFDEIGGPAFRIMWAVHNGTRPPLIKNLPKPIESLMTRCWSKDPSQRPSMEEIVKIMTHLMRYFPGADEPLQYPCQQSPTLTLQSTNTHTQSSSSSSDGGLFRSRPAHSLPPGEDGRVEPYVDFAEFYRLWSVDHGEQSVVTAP
Description: For assessing TAK1 inhibition, active TAK1-TAB1 fusion protein was used from Upstate (Cat. No, 14-600). Kinase reactions are set up in 96-well polypropylene plates in 25 μL containing 0.5 mU TAK1-TAB1 fusion protein, […], 0.01 μCi/μL [^33P]-γ-ATP, 0.1 mg/mL casein substrate in 1× reaction buffer containing 10 mM MOPS pH 7.0, 1 mM EDTA.
Starting from the compound master stocks (all at 10 mM concentration in 100% DMSO) a 3-fold serial dilution is made in 96-well plates in 100% DMSO. Plates are further diluted […] in H2O containing 3.5% DMSO, to obtain an intermediate work stock with compounds at 5× the final assay concentration in 5% DMSO.
5 μL of the intermediate stock is transferred into V-bottom 96 well polypropylene plates and 11 μL of Enzyme mix is added. Enzyme mix is made by combining 5 μL 5× reaction buffer ([…] pH 7.0, 1 mM EDTA), 5 μL casein (Sigma) diluted in H2O to 0.5 mg/mL and 1 μL of TAK1-TAB1 fusion protein that was prediluted to 0.5 mU/μL in 1× enzyme dilution buffer (20 mM MOPS pH 7.0, 0.1 mM EDTA, 0.01% Brij-35, 5% glycerol, 1 mM DTT, 1 mg/ml BSA).
The reactions are started by the addition of 9 μL of mixture containing ATP (20.83 uM) and [^33P]-γ-ATP (0.028 μCi/μL).
The assay is stopped 90 minutes after incubation at 30° C. by the addition of 25 μL phosphoric acid (150 mM). The label incorporated into the casein substrate is separated from labeled unincorporated ATP by filtration onto 96-well filter plates using a harvester device. After 6 washes with 75 mM phosphoric acid, the bottom of the filter plates are sealed, and incorporated label is quantified after addition of 40 μL scintillation fluid using TopCount.
Based on these percent inhibition data obtained in at least two independent experiments for the compounds, compounds are ranked using semi-quantitative scores. Table A below lists a number of compounds which have been or can be prepared according to the synthetic methods described herein. Semi-quantitative score: • *>3001 nM • ** 1001-3000 nM • *** 101-1000 nM • ****<100 nM

EC50 [1] [nM] | IC50 (TAK1-TAB1 fusion protein) [nM] | Structure (SMILES)
> 3000 | < 100 | CC(C)N1CCN(c2ccc(Nc3ccc(-c4ccc5c(c4)CNC5=O)n4ccnc34)cc2F)CC1 [Compound 26, 5-(8-(3-fluoro-4-(4-isopropyl-piperazin-1-yl)phenylamino)imidazo[1,2-a]pyridin-5-yl)isoindolin-1-one]
101 to 1000 | 101 to 1000 | CC(C)N1CCN(c2ccc(Nc3ccc(-c4ccc(C(N)=O)cc4)n4ccnc34)cc2)CC1 [Compound 10, 4-{8-[4-(4-Isopropyl-piperazin-1-yl)-phenylamino]-imidazo[1,2-a]pyridin-5-yl}-benzamide]
> 3000 | 101 to 1000 | CC(=O)N(C)C1CCN(C(=O)c2ccc(Nc3ccc(-c4ccc5c(c4)CNC5=O)n4ccnc34)cc2)C1 (centres unmarked) [Compound 42, N-methyl-N-(1-(4-(5-(1-oxoisoindolin-5-yl)imidazo[1,2-a]pyridin-8-ylamino)benzoyl)pyrrolidin-3-yl)acetamide]
> 3000 | 101 to 1000 | CC(C)N1CCN(c2ccc(Nc3ccc(-c4ccc(C(N)=O)cc4)n4ccnc34)cc2F)CC1 [Compound 11, 4-{8-[3-Fluoro-4-(4-isopropyl-piperazin-1-yl)-phenylamino]-imidazo[1,2-a]pyridin-5-yl}-benzamide]
> 3000 | 101 to 1000 | c1cn2c(-c3cn[nH]c3)ccc(Nc3ccc(N4CCN(C5CCC5)CC4)cc3)c2n1 [Compound 82]
101 to 1000 | 1000 to 3000 | NC(=O)c1ccc(-c2ccc(Nc3ccc(N4CCOCC4)c(F)c3)c3nccn23)cc1 [Compound 66]
1000 to 3000 | 1000 to 3000 | CC(C)N1CCN(c2ccc(Nc3ccc(-c4csc(C(N)=O)c4)n4ccnc34)cc2F)CC1 [Compound 9, 4-{8-[3-Fluoro-4-(4-isopropyl-piperazin-1-yl)-phenylamino]-imidazo[1,2-a]pyridin-5-yl}-thiophene-2-carboxylic acid amide]
> 3000 | 101 to 1000 | CC(C)CCN1CCN(c2ccc(Nc3ccc(-c4ccc(C(N)=O)cc4)n4ccnc34)cc2)CC1 [Compound 79]
> 3000 | 101 to 1000 | CCC(CC)N1CCN(c2ccc(Nc3ccc(-c4cn[nH]c4)n4ccnc34)cc2)CC1 [Compound 89]
101 to 1000 | > 3000 | NC(=O)c1ccc(-c2ccc(Nc3ccc(N4CCOCC4)c(F)c3)c3nccn23)cc1F [Compound 67]
101 to 1000 | 101 to 1000 | O=c1cc(-c2ccc(Nc3ccc(N4CCN(C5CCCCC5)CC4)cc3)c3nccn23)cc[nH]1 [Compound 90]
> 3000 | 101 to 1000 | CNC(=O)C1CCN(C(=O)c2ccc(Nc3ccc(-c4ccc5c(c4)CNC5=O)n4ccnc34)cc2)CC1 [Compound 41, N-methyl-1-(4-(5-(1-oxoisoindolin-5-yl)imidazo[1,2-a]pyridin-8-ylamino)benzoyl) piperidine-4-carboxamide]
101 to 1000 | 101 to 1000 | CCCN1CCN(c2ccc(Nc3ccc(-c4cc[nH]c(=O)c4)n4ccnc34)cc2)CC1 [Compound 84]
> 3000 | 1000 to 3000 | NC(=O)c1ccc(-c2ccc(Nc3ccc(N4CCN(C5CC5)CC4)cc3)c3nccn23)cc1 [Compound 83]
> 3000 | 101 to 1000 | CN(C)C(=O)c1ccc(Nc2ccc(-c3ccc4c(c3)CNC4=O)n3ccnc23)cc1 [Compound 14, N,N-dimethyl-4-(5-(1-oxoisoindolin-5-yl)imidazo[1,2-a]pyridin-8-ylamino)benzamide]
> 3000 | < 100 | CCN(CC)CCNC(=O)c1ccc(Nc2ccc(-c3ccc4c(c3)CNC4=O)n3ccnc23)cc1 [Compound 23, N-(2-(diethylamino)ethyl)-4-(5-(1-oxoisoindolin-5-yl)imidazo[1,2-a]pyridin-8-ylamino) benzamide]
> 3000 | 101 to 1000 | CC(C)N1CCN(c2ccc(Nc3ccc(-c4ccc5c(c4)CNC5=O)n4ccnc34)cc2Cl)CC1 [Compound 29, 5-(8-(3-chloro-4-(4-isopropyl-piperazin-1-yl)phenylamino)imidazo[1,2-a]pyridin-5-yl)isoindolin-1-one]
> 3000 | > 3000 | CC(=O)Nc1ccc(-c2ccc(Nc3ccc(N4CCN(C(C)C)CC4)cc3)c3nccn23)cc1 [Compound 70]
1000 to 3000 | 101 to 1000 | CC(C)N1CCC(c2ccc(Nc3ccc(-c4cc[nH]c(=O)c4)n4ccnc34)cc2)CC1 [Compound 96]
1000 to 3000 | 101 to 1000 | Fc1cc(Nc2ccc(-c3cn[nH]c3)n3ccnc23)ccc1N1CCOCC1 [Compound 69]
1000 to 3000 | 101 to 1000 | CS(=O)(=O)c1ccc(Nc2ccc(-c3cn[nH]c3)n3ccnc23)cc1 [Compound 71]
> 3000 | 101 to 1000 | CN(C)CCCNC(=O)c1ccc(Nc2ccc(-c3ccc4c(c3)CNC4=O)n3ccnc23)cc1 [Compound 50, -(3-(dimethylamino)propyl)-4-(5-(1-oxoisoindolin-5-yl)imidazo[1,2-a]pyridin-8-ylamino)benzamide]
